Reference: BindingDB's records for doi:10.1021/jm00013a009 (Sandoz Pharma, 1995)

Assay: Compound was evaluated for the binding affinity at 5- HT1A receptor

## N=C(N)NN=Cc1c[nH]c2ccc(O)cc12 [(2E)-2-[(5-hydroxy-1H-indol-3-yl)methylene]hydrazinecarboximidamide]
  Ki: 63 nM
